System: hepatocytes
Assay: Seq-Well scRNA-Seq of hepatocytes after APAP overdose (signature scores, DEG vs untreated)
Type: in vivo, mouse
Conditions: A6

CC(=O)Nc1ccc(O)cc1 [APAP, acetaminophen]
2-Mar pct.1: 0.611
2010003K11Rik pct.1: 0.396
2810007J24Rik pct.1: 0.675
8430408G22Rik pct.1: 0.041
Aadac pct.1: 0.673
Aass pct.1: 0.747
Abca1 pct.1: 0.604
Abhd2 pct.1: 0.37
Acaa1b pct.1: 0.752
Adck3 pct.1: 0.363
Adh1 pct.1: 0.74
Adh4 pct.1: 0.165
Agpat9 pct.1: 0.277
Akr1c6 pct.1: 0.675
Akr1c20 pct.1: 0.248
Alb pct.1: 1
Aldh1a1 pct.1: 0.862
Aldh3a2 pct.1: 0.064
Aldh8a1 pct.1: 0.418
Ang pct.1: 0.315
Apoa2 pct.1: 0.993
Apoa4 pct.1: 0.721
Apob pct.1: 0.99
Apoc1 pct.1: 0.962
Apoc3 pct.1: 0.869
Apoe pct.1: 1
Apol7a pct.1: 0.072
Arhgef12 pct.1: 0.578
Arl4d pct.1: 0.112
Asl pct.1: 0.826
Atp2a2 pct.1: 0.616
Atp5e pct.1: 0.506
Atp5h pct.1: 0.377
B4galt5 pct.1: 0.332
Bach1 pct.1: 0.461
Bcl2l1 pct.1: 0.501
Btg2 pct.1: 0.549
C8g pct.1: 0.673
C230081A13Rik pct.1: 0.279
Car3 pct.1: 0.854
Ccl6 pct.1: 0.274
Cd5l pct.1: 0.21
Cd14 pct.1: 0.153
Cd302 pct.1: 0.649
Cdkn1a pct.1: 0.702
Cers6 pct.1: 0.332
Ces3a pct.1: 0.831
Chchd2 pct.1: 0.718
Chka pct.1: 0.716
Cidec pct.1: 0.253
Clec4f pct.1: 0.339
Clqb pct.1: 0.234
Cltc pct.1: 0.661
Cml1 pct.1: 0.475
Cox4i1 pct.1: 0.869
Cox6c pct.1: 0.558
Cox7a2 pct.1: 0.456
Cox7b pct.1: 0.632
Creb3l2 pct.1: 0.329
Ctsl pct.1: 0.878
Ctss pct.1: 0.212
Cxadr pct.1: 0.606
Cyb5 pct.1: 0.916
Cyp4a14 pct.1: 0.776
D10Wsu102e pct.1: 0.37
Dbi pct.1: 0.819
Ddt pct.1: 0.539
Ddx3x pct.1: 0.692
Ddx5 pct.1: 0.685
Dusp5 pct.1: 0.196
Dusp6 pct.1: 0.482
Efhd2 pct.1: 0.468
Eif1a pct.1: 0.599
Eif4g2 pct.1: 0.757
Epas1 pct.1: 0.604
Etf1 pct.1: 0.606
Ets2 pct.1: 0.415
Fabp1 pct.1: 0.971
Fabp2 pct.1: 0.315
Fam134b pct.1: 0.678
Fdx1 pct.1: 0.305
Fga pct.1: 0.986
Fgb pct.1: 0.995
Fgg pct.1: 0.986
Fkbp5 pct.1: 0.415
Fxyd5 pct.1: 0.138
G6pc pct.1: 0.313
Gamt pct.1: 0.277
Gclc pct.1: 0.962
Gcnt2 pct.1: 0.372
Gjb2 pct.1: 0.678
Glyat pct.1: 0.468
Gm13775 pct.1: 0.284
Gm15564 pct.1: 0.983
Gm24601 pct.1: 0.241
Gm26924 pct.1: 1
Gn13 pct.1: 0.501
Gpt2 pct.1: 0.764
Gpx1 pct.1: 0.969
Grn pct.1: 0.582
Gsta1 pct.1: 0.32
Gulo pct.1: 0.076
H3f3b pct.1: 0.613
Haao pct.1: 0.621
Hacl1 pct.1: 0.489
Hagh pct.1: 0.573
Hba-a1 pct.1: 0.165
Hba-a2 pct.1: 0.131
Hbb-bs pct.1: 0.537
Hbb-bt pct.1: 0.246
Hebp1 pct.1: 0.43
Hes6 pct.1: 0.076
Hgd pct.1: 0.511
Hif1a pct.1: 0.427
Hilpda pct.1: 0.403
Hint1 pct.1: 0.57
Hmox1 pct.1: 0.558
Hnf4a pct.1: 0.835
Hpd pct.1: 0.883
Hsd3b5 pct.1: 0.062
Hsd17b13 pct.1: 0.864
Hspb8 pct.1: 0.709
Iigp1 pct.1: 0.78
Il1b pct.1: 0.236
Il1r1 pct.1: 0.683
Insig2 pct.1: 0.854
Itih2 pct.1: 0.893
Jak1 pct.1: 0.554
Jmjd1c pct.1: 0.47
Klf6 pct.1: 0.382
Krt8 pct.1: 0.826
Krt18 pct.1: 0.864
Lactb2 pct.1: 0.47
Lars2 pct.1: 1
Lifr pct.1: 0.389
Lpgat1 pct.1: 0.618
Lpin2 pct.1: 0.745
Lrg1 pct.1: 0.783
Lrrc58 pct.1: 0.711
Lyz2 pct.1: 0.234
Man2a1 pct.1: 0.671
Mat1a pct.1: 0.986
Mbl1 pct.1: 0.382
Mcm10 pct.1: 0.079
Mfsd2a pct.1: 0.465
Mgst1 pct.1: 0.938
Mmp8 pct.1: 0.136
Mrap pct.1: 0.606
Msrb1 pct.1: 0.558
Mt1 pct.1: 0.981
Mt2 pct.1: 0.938
Mthfd2 pct.1: 0.205
Mup3 pct.1: 1
Mup4 pct.1: 0.621
Mup5 pct.1: 0.475
Mup6 pct.1: 0.706
Mup7 pct.1: 0.831
Mup9 pct.1: 0.489
Mup11 pct.1: 0.511
Mup12 pct.1: 0.32
Mup15 pct.1: 0.076
Mup16 pct.1: 0.334
Mup17 pct.1: 0.871
Mup18 pct.1: 0.728
Mup19 pct.1: 0.759
Mup21 pct.1: 0.58
Myh9 pct.1: 0.718
Myo1e pct.1: 0.475
Ndufa4 pct.1: 0.656
Ndufa6 pct.1: 0.506
Nid1 pct.1: 0.229
Nop58 pct.1: 0.492
Nudt7 pct.1: 0.279
Oaf pct.1: 0.437
Oat pct.1: 0.05
Pah pct.1: 0.687
Pcbd1 pct.1: 0.535
Pck1 pct.1: 0.814
Phlda1 pct.1: 0.494
Picalm pct.1: 0.647
Plin2 pct.1: 0.943
Plscr1 pct.1: 0.329
Pon1 pct.1: 0.685
Ppib pct.1: 0.463
Ppl pct.1: 0.47
Ppm1k pct.1: 0.15
Prdx1 pct.1: 0.742
Psat1 pct.1: 0.229
Psen2 pct.1: 0.384
Ptprc pct.1: 0.153
Ranbp2 pct.1: 0.566
Rarres2 pct.1: 0.678
Rcan1 pct.1: 0.425
Rdh7 pct.1: 0.862
Rell1 pct.1: 0.375
Retnlg pct.1: 0.129
Retsat pct.1: 0.845
Rnase4 pct.1: 0.563
Rock2 pct.1: 0.425
Rora pct.1: 0.549
Rps27l pct.1: 0.484
S100a8 pct.1: 0.353

Source: US20230053540A1, “TREATMENT OF LIVER INJURY” (Massachusetts Institute of Technology, priority 2019, published 2023)
